Holding throughout (format): cell-based, human
One assay concerns SUZ12, Sox2. Kind of assay: SUZ12 and Sox2 expression after DOT1L/H3K79me2 inhibitor (FIG. 21A). The settings on record: 10 uM.
The test system of a further assay is ALDH1. The assay is described as follows: ALDH activity by FACS (aldefluor fluorescence). The settings on record: DLD-1, HT29 and two primary colon cancer cell lines, IL-22 24 hours. The source says: (A), IL-22 is expressed in colon cancer tissues. IL-22 mRNA was detected by real-time PCR in colon cancer tissues and peripheral blood. *P<0.05 compared to blood, 20 colon cancer patients. (B-D), Endogenous IL-22 promotes colon carcinogenesis. Single cells (10^7) isolated from colon cancer tissue were mixed with anti-IL-22 antibody or control mAb, and then subcutaneously injected to NSG mice. Tumor growth (B), incidence (C), and animal survival (D) are shown. (P<0.05 for all, n=5 per group). (E-G) Recombinant IL-22 promotes colon carcinogenesis. DLD-1 colon cancer cells (10^5) were pre-incubated with IL-22 (20 ng/ml) for 1 hour, and then subcutaneously injected to NSG mice. […] ALDH activity was determined by FACS based on aldefluor fluorescence. […] Results are expressed as fold changes of ALDH expression. […] The mRNA of stem cell core gene was detected by real-time PCR (K) and proteins were detected by western blotting (L, M). […]
(A, B) IL-22 is expressed by immune cells in colon cancer tissues. Different cell populations were sorted from colon cancer tissues and IL-22 expression was measured by real time PCR. […] IL-22 was detected via ELISA. […] IL-22 was detected with ELISA (D) or intracellular staining (E). […] IL-22 mRNA was detected by real time PCR (F) and protein by ELISA (G). […] IL-22 expression was quantified with real-time PCR in the migrated and non-migrated cells. […]
(A flow cytometer gives signals particle by particle.)

In another assay the test system is EZH2, SUZ12, EED, CBX8. Kind of assay: PcG / PRC2 component expression (real-time PCR, western blot). On the procedure: A, C. Cell proliferation was analyzed using H^3 Thymidine Incorporation. B. The level of total H3K79m2 and H3K27me3 was measured by Western Blot. D. PcG proteins of EZH2, EED, SUZ12 was increased with IL-22(20 ng/ml) treatment. E. EZH2, SUZ12 and EED was detected by Western Blot after IL-22 treated for 24 h or 48 h. F. EZH2 inhibitor DZNep reduced cell proliferation. G.H. The efficiency of EZH2 and SUZ12 knock down was tested by Western Blot. I.J. Cell proliferation was analyzed using H^3 Thymidine Incorporation after knock down of EZH2 and SUZ12. K.L. Relative expression of cyclin-dependent kinase inhibitors (p16 and p18) in shEZH2, shSUZ12 and Dznep treated cells after IL-22 treatment. M. The level of H3K27me3 in the promoter of p16 and p18 was analyzed by ChIP assay.
A. The protein level of phosphorylated STAT3, STAT1 and STATS were activated by IL-22. B. The effect of STAT3 knock down. C. The effect of IL-22 on cell proliferation was analyzed using H^3 Thymidine Incorporation in Stat3 knock down cells. D. Knock down of STAT3 reduced the expression of EZH2 and SUZ12. E. Based on the ENCODE STAT3-ChIP-Seq data base, STAT3 occupancy on the promoter areas of SUZ12 and EED is shown. F. SUZ12/EED DNA was detected by ChIP assay using an antibody against STAT3, c-fos was used as a positive control.
The mRNAs were quantified by real-time RT-PCR. SYBR Green Master Mix was used to detect fluorescence. Relative expression was calculated according to the Ct value with normalization to GAPDH.
Western Blot assay was performed with specific antibodies against human Stat3, phosphorylate Stat3 (Cell Signaling), Sox2, SUZ12(Santa Cruz biotechnology), EZH2 (Abcam), H3K27me3 and H3K79me2 (Millipore).
A general note: Real-time PCR tracks product formation cycle by cycle.

As for `CC(C)N(CCCNC(=O)Nc1ccc(C(C)(C)C)cc1)C[C@H]1O[C@@H](n2ccc3c(N)ncnc32)[C@H](O)[C@@H]1O` [EPZ004777], in the assay with SUZ12, Sox2, the SUZ12 expression result was “no effect” and the Sox2 expression result is on record as “reduce”.
As for “IL-22: recombinant IL-22 (R&D systems), cytokine interleukin-22”, in the assay on ALDH1, the “aldehyde dehydrogenase (ALDH1) activity” value was “increased”. Also, in the assay with EZH2, SUZ12, EED, CBX8 (FIG. 19D), the “protein level of EZH2 and SUZ12” value is “up regulate”. For the same compound, in the assay on EZH2, SUZ12, EED, CBX8 (IL-22 20 ng/ml), the CBX8 expression entry is recorded as “increased”, the “mRNA expression level of EED” value is given as “increased to a lesser extent” and the “mRNA expression level of SUZ12” value is “significantly increase”. In the assay with EZH2, SUZ12, EED, CBX8 (IL-22 24 h or 48 h), the “EED and SUZ12 expression (western blotting)” value is “increased to a lesser extent”; the “EZH2 expression (western blotting)” value is reported as “increased”.

For the origin of these results see US9618513B2, “Compositions and methods for detecting and treating colorectal cancer” (The Regents of the University of Michigan, priority 2014, dated 2017).
